“Also recorded” adds a separate entry of the source. Where no end group is shown, it is not given here. [ ]: non-standard residue; d: D form. Nba = nitrobenzyl amine (quencher); 2Abz = Nc1ccccc1C(=O)O
Experiments:
[1] = system: T1, LasB cleavable substrate Abz-Ala-Gly-Leu-Ala-Nba (SEQ ID NO 3, labelled)
T1 sequence: AGLA

[2] = system: T2, LecA-targeted prodrug 36 (peptide-based prodrug with the linker Ala-Gly-Leu-Ala, SEQ ID NO 3, between a LecA-targeting galactoside and fluoroquinolone 2)
T2 sequence: AGLA

[3] = target: T3, LecA (Pseudomonas aeruginosa, UniProt Q05097); test: Surface plasmon resonance with LecA; assay type: binding
T3 construct: made in house
Method: Surface plasmon resonance experiments were performed on a BIACORE X100 instrument (GE Healthcare) at 25° C. as described by Zahorska et. al. 2020. Averages and standard deviations were calculated from three independent experiments.

[4] = target: T3, LecA; test: Isothermal titration calorimetry with LecA; assay type: binding
Method: Isothermal titration calorimetry was performed on an iTC200 (Malvern Panalytical) and the data were analyzed using Microcal Origin software (Malvern Panalytical). LecA in the cell was titrated with ligand in TBS/Ca^2+ buffer supplemented with 5% DMSO at 25° C. Steep titration slopes were the result of high amount of protein present and the high binding affinity of the ligand (high ‘value of c’).
Isothermal titration calorimetry was performed on an iTC200 (Malvern Panalytical) and the data were analyzed using Microcal Origin software (Malvern Panalytical).

[5] = system: P. aeruginosa PAO1 biofilms; test: P. aeruginosa biofilm staining in the flow cell; assay type: cell-based, Pseudomonas aeruginosa PAO1; conditions: 500 nM in medium, 4 h accumulation, flow 3 mL/h
Method: Colonies of PAO1 wt labelled with the red fluorescent protein mCherry (pMP7605) were picked from a LB agar plate and transferred to 10 mL LB medium with Gentamicin 60 μg/ml to start an overnight culture. Incubation was done at 37° C. and 180 rpm overnight. A fresh culture was inoculated to an OD600nm of 0.02 (10 mL LB with Gentamicin 60 μg/mL) and incubated until the exponential growth phase was reached (OD600nm of 0.4 to 0.8). The bacterial suspension was diluted again to an OD600m of 0.1 and 300 μL were injected into a six-channel μ-slide (ibidi, Germany). The settling time was 30 min. The flow of 1:5 diluted LB medium with Gentamicin 60 μg/ml was 3 mL/h. The biofilms were grown in a heat system (ibidi, Germany) at 30° C. and for 48 h.
After 48 h of biofilm growth, aggregates were stained by supplementing the divalent LecA ligand 57 and Fluorescein disodium salt 58 as a control to the medium. The final concentration of the supplements in the medium was 500 nM and constantly accumulated within the biofilm for 4 h by a flow rate of 3 mL/h. Washing was performed for 30 min with LB 1:5 diluted with Gentamicin 60 μg/mL.
Analysis was done by using a fluorescence microscope Leica DMi8. […] The green fluorescein signal was detected by an excitation wavelength of 460 to 500 nm and an emission wavelength of 512 to 542 nm. Snapshots were normalized by using the Fiji software. […]

[6] = target: T3, LecA; test: Direct titration of fluorescent ligand with LecA in fluorescence polarization assay; assay type: binding
[7] = Stability in aqueous buffer; assay type: physicochemical; conditions: Tris buffer (TBS/Ca2+), after 24 h
[8] = Cleavage / stability in PA14-filtrate without human blood plasma; assay type: in vitro ADME, Pseudomonas aeruginosa PA14; conditions: up to 24 h
Method: P. aeruginosa PA14 was streaked on LB-agar plates (1% agar) from glycerol stocks and incubated at 37° C. overnight. 2-5 colonies were picked and dispersed in 10 mL LB (10 g/L trypton, 10 g/L NaCl, 5 g/L yeast extracts). This dispersion was incubated overnight at 37° C., 180 rpm under high humidity. The culture was centrifuged (4000 ref, room temperature, 10 min) and the supernatant was filtered (0.22 m pore size). […]
A 1 mM solution of the studied compound was prepared in PBS (150 mM NaCl, 2.6 mM KCl, 1.4 mM KH2PO4, 10 mM Na2HPO4, pH 7.4) with 20% DMSO. 50 μL of this solution was diluted in 950 μL matrix or human plasma (spiked with 10% LB) on ice. After brief vortex, 100 μL were immediately treated with 100 μL ice-cold MeCN (spiked with […] diphenhydramine as internal standard). The rest of the solution was incubated at 37° C. and 500 rpm in an eppendorf thermomixer. At various time points (30, 60, 120, 180 min), 100 L sample were taken and treated as described above. […] The AUC of the parent drug and its cleavage products and the internal standard was quantified using Compass QuantAnalysis quantification software. The relative AUC was calculated by AUC (compound)/AUC(ISTD). Procaine was used as a positive control as it readily degrades in human plasma.

[9] = target: T4, MMP-2 (Homo sapiens, UniProt P08253); test: FRET-based cleavage assay with MMP-2; assay type: biochemical; conditions: serial dilution of activated MMP-2
T4 sequence (P08253 110-660): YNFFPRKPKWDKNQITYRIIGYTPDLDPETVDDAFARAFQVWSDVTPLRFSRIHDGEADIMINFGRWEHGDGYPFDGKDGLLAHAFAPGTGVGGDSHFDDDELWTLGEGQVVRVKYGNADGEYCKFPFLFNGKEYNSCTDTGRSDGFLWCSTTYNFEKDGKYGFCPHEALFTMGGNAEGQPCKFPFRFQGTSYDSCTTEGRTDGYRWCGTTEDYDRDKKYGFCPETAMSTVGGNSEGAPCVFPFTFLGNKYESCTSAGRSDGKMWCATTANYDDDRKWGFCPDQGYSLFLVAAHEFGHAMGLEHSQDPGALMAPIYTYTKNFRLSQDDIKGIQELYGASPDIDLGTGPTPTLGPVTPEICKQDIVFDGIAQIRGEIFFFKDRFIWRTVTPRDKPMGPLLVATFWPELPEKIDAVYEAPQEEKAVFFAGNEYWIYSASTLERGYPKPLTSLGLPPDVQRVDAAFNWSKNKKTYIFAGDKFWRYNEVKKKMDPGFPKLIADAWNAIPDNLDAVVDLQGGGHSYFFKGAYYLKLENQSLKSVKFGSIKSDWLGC
Method: MMP-2 (50 μL, 0.2 μg/mL in 20 mM tris pH 7.5, 8 mM CaCl2, 119 mM NaCl, 20% Glycerol, 0.05% Brij 35, Cat #SAE0174-50UG, Sigma-Aldrich) was activated with 1 mM APMA (from 100 mM DMSO stock, Cat #AS—71158, AnaSpec) for 1 h at 37° C. Then, dilution series of the activated MMP-2 and of PA14-filtrate were prepared in PBS. SensoLyte 520 generic MMP substrate (Cat #AS—71158, AnaSpec) was diluted 1:100 in PBS. […] 10 μL dilution series was mixed with 10 μL MMP substrate or LasB substrate and fluorescence (λex=490 mn, λem=520 nm and λex=320 mn, λem=420 nm, for MMP substrate and LasB substrate, respectively) was recorded for 10 min (10 s interval).

T3 sequence (Q05097 whole entry): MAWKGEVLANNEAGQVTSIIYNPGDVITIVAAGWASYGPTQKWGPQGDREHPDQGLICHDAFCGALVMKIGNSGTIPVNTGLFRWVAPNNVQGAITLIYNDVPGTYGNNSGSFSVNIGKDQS

With “matrix-metalloprotease 2 (MMP-2), activated with APMA” the “turnover of the LasB-substrate in a FRET-based cleavage assay (serial dilution of activated MMP-2)” value [1] was “Only a very weak turnover of the LasB-substrate was observed in a FRET-based cleavage assay at very high concentrations (>50 ng/mL final) of MMP-2” and the “Stability of prodrug 36 in presence of activated MMP-2, monitored by HPLC-MS” value [2] was “No detectable metabolism was observed after 20 min or 3 d at 37 °C”.
C#CCCN(Cc1ccc(NC(=O)CCc2ccc(O[C@@H]3OC(CO)[C@H](O)C(O)C3O)cc2)cc1)Cc1ccc(NC(=O)CCc2ccc(O[C@@H]3OC(CO)[C@H](O)C(O)C3O)cc2)cc1 (some centres unmarked) [Compound 55] showed a Kd [3] of 9.9 ± 0.5 nM and a Kd [4] of 47.2 ± 11.3 nM.
For CC1=CC(C)=[N+]2C1=Cc1ccc(CCC(=O)NCCCN=[N+]=[N-])n1[B-]2(F)F [BDP FL azide], the biofilm staining [5] was “did not show any enrichment”.
With O=C(CCc1ccc(O[C@@H]2OC(CO)[C@H](O)C(O)C2O)cc1)Nc1ccc(CN(CCc2cn(CCOCCOCCOCCNC(=S)Nc3ccc4c(c3)C(=O)OC43c4ccc(O)cc4Oc4cc(O)ccc43)nn2)Cc2ccc(NC(=O)CCc3ccc(O[C@@H]4OC(CO)[C@H](O)C(O)C4O)cc3)cc2)cc1 (some centres unmarked) [Compound 57] the Kd [3] was 19.3 ± 10.5 nM, the Kd ([4]; ITC, TBS/Ca2+ buffer, 5% DMSO, 25° C.) was “High affinity” and the Kd [6] was 1050 nM. For the same compound, the degradation in buffer [7] was “did not show any degradation”.
In the case of CC(C)C[C@H](N)C(=O)N[C@@H](C)C(=O)N1CCN(c2cc3c(cc2F)c(=O)c(C(=O)O)cn3C2CC2)CC1 [Compound 19, Leu-Ala-ciprofloxacin-conjugate], the “release of free drug from dipeptide-conjugates” value [8] is reported as “very slow; also recorded: only slowly released their antibiotic cargo”.
With “Abz-Ala-Gly-Leu-Ala-Nba ([2Abz]AGLA-Nba) [LasB-substrate]” the “cleavage of FRET substrate by MMP-2” value [9] was “rather stable; also recorded: very weak turnover”.

Source: patent US20250295790A1, “LECTIN-TARGETING CONJUGATES” (Helmholtz-Zentrum für Infektionsforschung GmbH, priority 2021, published 2025)
